Data taken from PubChem BioAssay AID1918956 (Molecular Pharmacology Branch, DTP, NCI, 2023).
Several values for one entry are separate records, joined by “and”; a condition that tells them apart may be missing. Equal entries are not always repeated.

Tested on: OVCAR-5 complex spheroids, viability
Assay: Anticancer human tumor OVCAR-5 cell line growth inhibition;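 note: spheroids exposed to agents for seven days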;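 for viability, T/C: 100% = DMSO vehicle control wells viability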
Settings: for viability, T/C: stronger effect = lower value
From the text: Multicellular complex tumor spheroid response to LSD1 Inhibitor Iadademstat in combination with a variety of drugs and investigational agents in selected tumor cell lines
The current study was undertaken to assess response to LSD1 inhibitors in combination with standard-of-care drugs and investigational agents in solid tumor complex spheroid models as well as in the K-562 leukemia. Complex spheroids include a stromal component modeled by human endothelial cells (HUVEC) and fibroblasts modeled by human mesenchymal stem cells (MSCs). The concentration ranges selected for each drug and investigational agent were based upon clinically achievable concentrations if the clinical Cmax of the agent was known.
Compounds. The drugs and investigational agents used in this study are listed on Table 1. All of the agents used, including staurosporine (NSC755774) and gemcitabine (NSC613327), were obtained from the Developmental Therapeutics Program, NCI. FDA-approved anticancer drugs are available from the NCI at http://dtp.nci.nih.gov/branches/dscb/oncology_drugset_explanation.html. Drugs and investigational agents were >95% pure by proton nuclear magnetic resonance (NMR) and liquid chromatography/mass spectrometry (LC/MS). Stock solutions were prepared at 400x in DMSO, stored at -70 degrees C, and diluted in fresh medium prior to their use. The final concentration of DMSO in cell culture wells never exceeded 0.25% (v/v). The FDA-approved anticancer drug set is available from the Developmental Therapeutics Program at https://dtp.cancer.gov/organization/dscb/obtaining/available_plates.htm. All drugs and investigational agents were tested over a range starting from a high concentration at or near the clinical Cmax and decreasing in half-log increments. If the clinical Cmax for an agent had not been determined, the highest concentration tested was 10 microM.
Cell Lines. The patient-derived cancer cell (PDC) lines: 292921-168-R-J2-PDC, K24384-001-R-PDC, and 521955-158-R2-J5-PDC pancreatic carcinomas, 556581-035-R-J1 ovarian carcinoma, 324938-238-R-J1-PDC, 855422-203-R-J1-PDC and 883617-216-R-J1-PDC urothelial bladder carcinomas, 743489-274-T-PDC renal cell carcinoma, 138582-R-J1 Merkel cell tumor, K60290-347-R-J1 and K57222-313-R-J1-PDC glioblastomas, 653999-131-R-J2-PDC, LG0703-F948-PDC, and 349418-098-R-PDC non-small cell lung carcinomas, 885512-296-R-J2-PDC, 171881-019-R-J1-PDC breast carcinomas and 186277-243-T-J2-PDC and 233499-124-R-J2-PDC colon carcinomas were obtained from the NCI Patient-Derived Models Repository (PDMR, https://pdmr.cancer.gov). The established cell lines NCI/ADR-RES (RRID:CVCL_14520 and OVCAR-5 (RRID:CVCL_1628) ovarian carcinomas, 786-O (RRID:CVCL_1051) and A498 […] renal cell carcinoma, NCI-H211 (ATCC, cat. CRL-5824; RRID:CVCL_1529), NCI-H196 (ATCC, cat. CRL-5823, RRID:CVCL_1509), SW 1271 (ATCC, cat. CRL-2177, RRID:CVCL_1716) and NCI-H1876 (ATCC, cat. CRL-5902, RRID:CVCL_1503) small cell lung carcinomas, MDA-MB-231 (RRID:CVCL_0062) and MDA-MB-468 (RRID:CVCL_0419)breast carcinomas (10-12). Pooled donor human umbilical vein endothelial cells (HUVEC, Lonza, cat. CC-2519) and human mesenchymal stem cells (hMSC, Lonza, cat. PT-2501) were purchased from Lonza (Walkersville, MD).
Cell Culture. All cells were maintained in an incubator at 37 degrees C and 5% CO2 with 95% humidity. The PDC lines were cultured according to standard operating procedures established by the NCI PDMR (https://pdmr.cancer.gov). Briefly all PDCs were thawed and cultured in Matrigel-coated flasks prepared with a working solution of 1X Ham's F-12 nutrient mix, without supplementation (Invitrogen, Waltham, MA, cat. 11765054), 100 U/mL penicillin-streptomycin (Invitrogen, cat. 15140122), and 2.5% Matrigel (Corning Inc., Corning, NY, cat. 354248) for the first three passages. […]

SMILES: Cn1ncnc1C1c2n[nH]c(=O)c3cc(F)cc(c23)NC1c1ccc(F)cc1 (stereo unspecified)
- viability, T/C (compound 0.000316 µM): 96.3% and 102%
- viability, T/C (compound 0.001 µM): 91.2% and 102%
- viability, T/C (compound 0.00316 µM): 89% and 98.7%
- viability, T/C (compound 0.01 µM): 93.4% and 95.9%
- viability, T/C (compound 0.0316 µM): 90.2% and 86%
- viability, T/C (compound 0.1 µM): 99.8% and 93.8%
- IC50 (curve of compound): > 100 nM

SMILES: COc1ccc([C@@H](O)c2cc(-c3ncnc4cc(N5CCOCC5)ccc34)c(F)cc2Cl)nn1
- viability, T/C (compound 0.0316 µM): 92.1% and 91.6%
- viability, T/C (compound 0.1 µM): 91.6% and 84.7%
- viability, T/C (compound 0.316 µM): 73.3% and 58.1%
- viability, T/C (compound 1 µM): 55.4% and 44.1%
- viability, T/C (compound 3.16 µM): 45.3% and 32.7%
- viability, T/C (compound 10 µM): 24.9% and 18.4%
- IC50 (curve of compound): 1790 nM and 690 nM

SMILES: CC[C@@]1(O)C(=O)OCc2c1cc1n(c2=O)Cc2cc3c(CN(C)C)c(O)ccc3nc2-1 + NC1CCC(NC2CC2c2ccccc2)CC1
- IC50 (curve of first compound, second compound 0.1 µM): 5.66 nM
- IC50 (curve of first compound, second compound 0.316 µM): 10.9 nM
- IC50 (curve of first compound, second compound 1 µM): 11.2 nM
- IC50 (curve of first compound, second compound 3.16 µM): 12.1 nM
- IC50 (curve of first compound, second compound 10 µM): 9.89 nM
- viability, T/C (second compound 0.1 µM, first compound 0.000316 µM): 103%
- viability, T/C (second compound 0.1 µM, first compound 0.001 µM): 105%
- viability, T/C (second compound 0.1 µM, first compound 0.00316 µM): 58.8%
- viability, T/C (second compound 0.1 µM, first compound 0.01 µM): 50.2%
- viability, T/C (second compound 0.1 µM, first compound 0.0316 µM): 48%
- viability, T/C (second compound 0.1 µM, first compound 0.1 µM): 23.4%
- viability, T/C (second compound 0.316 µM, first compound 0.000316 µM): 112%
- viability, T/C (second compound 0.316 µM, first compound 0.001 µM): 97.7%
- viability, T/C (second compound 0.316 µM, first compound 0.00316 µM): 56.5%
- viability, T/C (second compound 0.316 µM, first compound 0.01 µM): 49.8%
- viability, T/C (second compound 0.316 µM, first compound 0.0316 µM): 50%
- viability, T/C (second compound 0.316 µM, first compound 0.1 µM): 24%
- viability, T/C (second compound 1 µM, first compound 0.000316 µM): 105%
- viability, T/C (second compound 1 µM, first compound 0.001 µM): 93.3%
- viability, T/C (second compound 1 µM, first compound 0.00316 µM): 56.9%
- viability, T/C (second compound 1 µM, first compound 0.01 µM): 51.2%
- viability, T/C (second compound 1 µM, first compound 0.0316 µM): 47.7%
- viability, T/C (second compound 1 µM, first compound 0.1 µM): 26.7%
- viability, T/C (second compound 3.16 µM, first compound 0.000316 µM): 109%
- viability, T/C (second compound 3.16 µM, first compound 0.001 µM): 98.5%
- viability, T/C (second compound 3.16 µM, first compound 0.00316 µM): 62.4%
- viability, T/C (second compound 3.16 µM, first compound 0.01 µM): 51.3%
- viability, T/C (second compound 3.16 µM, first compound 0.0316 µM): 49.3%
- viability, T/C (second compound 3.16 µM, first compound 0.1 µM): 28.2%
- viability, T/C (second compound 10 µM, first compound 0.000316 µM): 91.1%
- viability, T/C (second compound 10 µM, first compound 0.001 µM): 85.5%
- viability, T/C (second compound 10 µM, first compound 0.00316 µM): 51.8%
- viability, T/C (second compound 10 µM, first compound 0.01 µM): 49.3%
- viability, T/C (second compound 10 µM, first compound 0.0316 µM): 48.7%
- viability, T/C (second compound 10 µM, first compound 0.1 µM): 27.7%

SMILES: CCN(c1cc(-c2ccc(CN3CCOCC3)cc2)cc(C(=O)NCc2c(C)cc(C)[nH]c2=O)c1C)C1CCOCC1
- viability, T/C (compound 0.00949 µM): 101% and 110%
- viability, T/C (compound 0.03 µM): 102% and 107%
- viability, T/C (compound 0.0949 µM): 104% and 103%
- viability, T/C (compound 0.3 µM): 102% and 97.2%
- viability, T/C (compound 0.949 µM): 98.4% and 103%
- viability, T/C (compound 3 µM): 100% and 109%
- IC50 (curve of compound): > 3000 nM
